Assay results reported in patent US20040014808A1, “Novel derivatives of carnosic acid” (priority 2002, published 2004).

Experiment: DPPH free-radical scavenging assay
Type: biochemical
Conditions: 300 μM DPPH in methanol, room temperature, 30 min, read at 517 nm, mean of 3 observations; for IC50: read-out: IC50 (μM), concentration of sample required to scavenge 50% DPPH free radicals
Experimental: DPPH Radical Scavenging Assay. The DPPH free radical scavenging assay is based on the abilities of compounds to quench stable DPPH free radicals (Lee, S. K.; Mbwambo, Z. H.; Chung, H. S.; Luyengi, L.; Gamez, E. J. C.; Mehta, R. G.; Kinghorn, A. D.; Pezzuto, J. M. Comb. Chem. High Throughput Screen. 1998, 1, 35-46). Reaction mixtures (200 μL) were prepared by combining multiple concentrations of test sample in methanol (10 μL) with DPPH (Aldrich, Milwaukee, Wis.) in methanol (190 μL). The final DPPH concentration was 300 μM. The reaction mixtures were incubated in 96-well microtiter plates at room temperature for 30 min. After the reaction, reduction of the radical was then measured at 517 nm. Percent inhibition by sample treatment was determined by comparison with controls containing no test samples. IC50 values denote the concentration of sample, required to scavenge 50% DPPH free radicals (Ibid.).

| Structure (SMILES) | IC50 (μg/mL), concentration of sample required to scavenge 50% DPPH free radicals | IC50 |
| --- | --- | --- |
| O=C1O[C@H]([C@@H](O)CO)C(O)=C1O [Ascorbic acid] | 11.8 µg/mL | 66.8 µM |
| CC(C)c1cc2c(c(O)c1O)[C@@]1(C(=O)O)CCCC(C)(C)[C@@H]1CC2 [Compound 1, carnosic acid] | 18.7 µg/mL | 53.3 µM |
| COc1c(C(C)C)cc2c(c1O)C1(CO)CCCC(C)(C)C1CC2 (centres unmarked) [Compound 4, 11,20-dihydroxy-12-methoxy-abiet-8,11,13-triene] | 27.7 µg/mL | 83.4 µM |
| CC(C)c1cc2c(c(O)c1O)[C@@]13CCCC(C)(C)[C@@H]1C[C@@H]2OC3=O [Compound 5, 11,12-dihydroxy-7-10-(epoxymethano)-abiet-8,11,13-triene-20-one] | 37.9 µg/mL | 114 µM |

More lines, now with the values ahead:

| IC50 (μg/mL), concentration of sample required to scavenge 50% DPPH free radicals | IC50 | Structure (SMILES) |
| --- | --- | --- |
| 23.9 µg/mL | 66 µM | CC1(C)CCCC23C(=O)OC(CC12)c1cc(C(CO)CO)c(O)c(O)c13 (centres unmarked) [Compound 6, 11,12,16,17-tetrahydroxy-7-10-(epoxymethano)-abiet-8,11,13-triene-20-one] |
| 9.8 µg/mL | 46.1 µM | CCCOC(=O)c1cc(O)c(O)c(O)c1 [Propyl gallate] |
| 4.8 µg/mL | 37.8 µM | Oc1cccc(O)c1O [Pyrogallol] |
